US8802711B2, “TRPV1 antagonists” (AbbVie Inc., priority 2011, dated 2014)

Assays:
[1] = target: T1, human TRPV1 receptor (hTRPV1) (Homo sapiens (Human), UniProt Q8NER1); assay: Capsaicin activation assay (FLIPR intracellular Ca2+); type: cell-based; details: Table 1; inhibition of capsaicin-induced intracellular Ca2+ increase, HEK293 cells expressing human TRPV1; read-out: hTRPV1 cap IC50
Summary of the method: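 Antagonism measured as [Ca2+]i fluorescence on FLIPR Tetra: compounds given 3 min ahead of capsaicin, added as 200 nM (4×), to dye-loaded hTRPV1-HEK293 cells. Response taken as baseline-subtracted peak, normalized to the 50 nM capsaicin control; 12-point one-third-log titrations.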

[2] = target: T1, human TRPV1 receptor (hTRPV1); assay: Acid activation assay (pH 5.0, FLIPR intracellular Ca2+); type: cell-based; details: Table 1; 37.5 μM antagonist, percentage of the maximal pH 5.0-induced response remaining; read-out: hTRPV1 H+ (max % remain)
Summary of the method: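 Antagonism of acid-evoked Ca2+ influx measured by FLIPR Calcium-4 fluorescence after a pH 5.0 DPBS/MES stimulus, with compounds preincubated 3 min over 12 half-log concentrations. Cells: stable hTRPV1-expressing 1321N1 line, dye-loaded 90–120 min in the dark at 25 °C.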

T1 sequence (Q8NER1 whole entry): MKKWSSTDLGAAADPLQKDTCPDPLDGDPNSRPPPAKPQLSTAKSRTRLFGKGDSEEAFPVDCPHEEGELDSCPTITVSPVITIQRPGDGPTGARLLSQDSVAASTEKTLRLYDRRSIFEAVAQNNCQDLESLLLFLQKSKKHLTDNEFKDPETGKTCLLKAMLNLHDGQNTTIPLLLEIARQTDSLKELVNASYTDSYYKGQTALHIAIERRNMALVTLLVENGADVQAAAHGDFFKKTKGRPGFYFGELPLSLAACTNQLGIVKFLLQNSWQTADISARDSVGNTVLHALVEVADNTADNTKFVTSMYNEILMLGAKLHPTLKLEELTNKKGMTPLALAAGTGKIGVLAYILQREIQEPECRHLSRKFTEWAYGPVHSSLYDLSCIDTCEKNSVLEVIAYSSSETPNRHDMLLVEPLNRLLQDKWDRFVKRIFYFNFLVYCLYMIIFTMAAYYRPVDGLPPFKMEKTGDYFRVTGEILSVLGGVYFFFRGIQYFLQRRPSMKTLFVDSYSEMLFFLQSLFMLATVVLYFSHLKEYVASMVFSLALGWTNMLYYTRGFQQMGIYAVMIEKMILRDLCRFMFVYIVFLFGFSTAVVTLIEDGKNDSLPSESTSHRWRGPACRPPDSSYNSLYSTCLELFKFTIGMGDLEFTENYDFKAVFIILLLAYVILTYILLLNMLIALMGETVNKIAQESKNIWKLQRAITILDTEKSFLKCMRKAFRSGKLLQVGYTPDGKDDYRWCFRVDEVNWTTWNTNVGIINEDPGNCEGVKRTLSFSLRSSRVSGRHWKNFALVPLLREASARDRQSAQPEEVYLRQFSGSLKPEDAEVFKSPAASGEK

IC50 [1]	remaining activity at 37.5 µM [2]	Structure (SMILES)
78 nM	59%	Cn1c(=O)ccc2c(NC(=O)N[C@H]3CC[C@@H](c4ccccc4)C3)cccc21 [Example 50, 1-(1-methyl-2-oxo-1,2-dihydroquinolin-5-yl)-3-((1S,3R)-3-phenylcyclopentyl)urea]
8 nM	12%	O=C(Nc1cccc2[nH]ncc12)N[C@@H]1CC[C@H](c2cccc(F)c2)C1 [Example 65, 1-[(1R,3S)-3-(3-fluorophenyl)cyclopentyl]-3-(1H-indazol-4-yl)urea]
48 nM	41%	O=C(Nc1cccc2[nH]ncc12)N[C@@H]1CC[C@@H](c2cccc(F)c2)C1 [Example 68, 1-[(1R,3R)-3-(3-fluorophenyl)cyclopentyl]-3-(1H-indazol-4-yl)urea]
12 nM	2%	O=C(Nc1cccc2[nH]ncc12)N[C@H]1CC[C@@H](c2cccc(F)c2)C1 [Example 69, 1-[(1S,3R)-3-(3-fluorophenyl)cyclopentyl]-3-(1H-indazol-4-yl)urea]
2 nM	9%	Cc1cc2c(NC(=O)N[C@@H]3CC[C@H](c4cccc(F)c4)C3)c(F)ccc2cn1 [Example 76, 1-(6-fluoro-3-methylisoquinolin-5-yl)-3-[(1R,3S)-3-(3-fluorophenyl)cyclopentyl]urea]
11 nM	75%	Cn1c(=O)ccc2c(NC(=O)N[C@H]3CC[C@@H](c4cccc(F)c4)C3)cccc21 [Example 79, 1-[(1S,3R)-3-(3-fluorophenyl)cyclopentyl]-3-(1-methyl-2-oxo-1,2-dihydroquinolin-5-yl)urea]
10 nM	55%	Cn1c(=O)ccc2c(NC(=O)N[C@H]3CC[C@@H](c4ccccc4F)C3)cccc21 [Example 80, 1-[(1S,3R)-3-(2-fluorophenyl)cyclopentyl]-3-(1-methyl-2-oxo-1,2-dihydroquinolin-5-yl)urea]
2.3 nM	66%	Cn1c(=O)ccc2c(NC(=O)N[C@@H]3CC[C@@H](c4ccccc4F)C3)cccc21 [Example 81, 1-[(1R,3R)-3-(2-fluorophenyl)cyclopentyl]-3-(1-methyl-2-oxo-1,2-dihydroquinolin-5-yl)urea]

Further lines, the compound ahead of its results:

Structure (SMILES)	IC50 [1]	remaining activity at 37.5 µM [2]
O=C(Nc1cccc2[nH]ncc12)N[C@H]1C[C@@H](c2ccccc2)[C@@H](O)[C@H]1O [Example 52, 1-((1S,2S,3R,4S)-2,3-dihydroxy-4-phenylcyclopentyl)-3-(1H-indazol-4-yl)urea]	22400 nM	67%
O=C(Nc1cccc2[nH]ncc12)N[C@H]1C[C@@H](c2ccccc2)[C@H](O)[C@@H]1O [Example 53, 1-((1S,2R,3S,4S)-2,3-dihydroxy-4-phenylcyclopentyl)-3-(1H-indazol-4-yl)urea]	> 37500 nM	84%
O=C(Nc1cccc2[nH]ncc12)N[C@@H]1C[C@H](c2ccccc2)[C@@H]2[C@H]1C2(F)F [Example 54, 1-((1R,2R,4S,5R)-6,6-difluoro-4-phenylbicyclo[3.1.0]hex-2-yl)-3-(1H-indazol-4-yl)urea]	1340 nM	69%
O=C(Nc1cccc2[nH]ncc12)N[C@@H]1C[C@H](c2ccccc2)[C@@H]2C[C@@H]21 [Example 55, 1-(1H-indazol-4-yl)-3-((1S,2R,4S,5S)-4-phenylbicyclo[3.1.0]hex-2-yl)urea]	37 nM	11%
O=C(Nc1cccc2[nH]ncc12)N[C@H]1C[C@@H](c2ccccc2)C1 [Example 56, 1-(1H-indazol-4-yl)-3-(cis-3-phenylcyclobutyl)urea]	14 nM	10%
O=C(Nc1cccc2[nH]ncc12)N[C@H]1C[C@H](c2ccccc2)C1 [Example 57, 1-(1H-indazol-4-yl)-3-(trans-3-phenylcyclobutyl)urea]	64 nM	4%
O=C(Nc1cccc2c1C[C@H](O)C2)N[C@H]1C[C@H](c2ccccc2)C1 [Example 59, 1-[(2R)-2-hydroxy-2,3-dihydro-1H-inden-4-yl]-3-(trans-3-phenylcyclobutyl)urea]	435 nM	79%
O=C(Nc1cccc2c1C[C@H](O)C2)N[C@H]1C[C@@H](c2ccccc2)C1 [Example 60, 1-[(2R)-2-hydroxy-2,3-dihydro-1H-inden-4-yl]-3-(cis-3-phenylcyclobutyl)urea]	331 nM	72%
O=C(Nc1cccc2[nH]ncc12)N[C@H]1CC[C@H](c2ccccc2F)C1 [Example 62, 1-[(1S,3S)-3-(2-fluorophenyl)cyclopentyl]-3-(1H-indazol-4-yl)urea]	10 nM	5%
O=C(Nc1cccc2[nH]ncc12)N[C@H]1C=C[C@@H](c2ccccc2)C1 [Example 63, 1-(1H-indazol-4-yl)-3-[(1R,4S)-4-phenylcyclopent-2-en-1-yl]urea]	122 nM	38%
O=C(Nc1cccc2[nH]ncc12)N[C@H]1CC[C@@H](c2ccccc2F)C1 [Example 67, 1-[(1S,3R)-3-(2-fluorophenyl)cyclopentyl]-3-(1H-indazol-4-yl)urea]	11 nM	18%
Cc1cc2c(NC(=O)N[C@@H]3CC[C@H](c4ccccc4F)C3)c(F)ccc2cn1 [Example 70, 1-(6-fluoro-3-methylisoquinolin-5-yl)-3-[(1R,3S)-3-(2-fluorophenyl)cyclopentyl]urea]	5.6 nM	22%
Cc1cc2c(NC(=O)N[C@H]3CC[C@H](c4ccccc4F)C3)c(F)ccc2cn1 [Example 71, 1-(6-fluoro-3-methylisoquinolin-5-yl)-3-[(1S,3S)-3-(2-fluorophenyl)cyclopentyl]urea]	8.6 nM	15%
C[C@@]1(c2ccccc2)CC[C@H](NC(=O)Nc2cccc3[nH]ncc23)C1 [Example 72, 1-(1H-indazol-4-yl)-3-[(1S,3R)-3-methyl-3-phenylcyclopentyl]urea]	80 nM	22%
C[C@@]1(c2ccccc2)CC[C@@H](NC(=O)Nc2cccc3[nH]ncc23)C1 [Example 73, 1-(1H-indazol-4-yl)-3-[(1R,3R)-3-methyl-3-phenylcyclopentyl]urea]	164 nM	11%
Cc1cc2c(NC(=O)N[C@H]3CC[C@H](c4cccc(F)c4)C3)c(F)ccc2cn1 [Example 74, 1-(6-fluoro-3-methylisoquinolin-5-yl)-3-[(1S,3S)-3-(3-fluorophenyl)cyclopentyl]urea]	3.5 nM	44%
Cc1cc2c(NC(=O)N[C@@H]3CC[C@@](C)(c4ccccc4)C3)c(F)ccc2cn1 [Example 75, 1-(6-fluoro-3-methylisoquinolin-5-yl)-3-[(1R,3R)-3-methyl-3-phenylcyclopentyl]urea]	21 nM	16%
CN1C(=O)CCc2ccc(NC(=O)N[C@@H]3CC[C@H](c4ccccc4)C3)cc21 [Example 77, 1-(1-methyl-2-oxo-1,2,3,4-tetrahydroquinolin-7-yl)-3-[(1R,3S)-3-phenylcyclopentyl]urea]	> 37500 nM	56%
